# Results taken from ChEMBL document CHEMBL1201862, “PubChem BioAssay data set” (2004).
#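 Protocol summary: plate cells (96-well), add compound at 5 concentrations, incubate 48 h, interpolate endpoints linearly. GI50: concentration for 50% inhibition of growth.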 The source made the active and inactive calls. Cut-off read from the data, not from the text of the source: active = GI50 up to about 1.1 µM and inactive = higher.
# How the values were obtained:
# Assay in all cases: NCI anticancer screen, dose series, 48 h
# EKVX = test system: EKVX
# CCRF-CEM = test system: CCRF-CEM
# M14 = test system: M14
# OVCAR-8 = test system: OVCAR-8
# UACC-257 = test system: UACC-257
# HCT-116 = test system: HCT-116
# A549 = test system: A549
# PC-3 = test system: PC-3
# SNB-75 = test system: SNB-75
# NCI/ADR-RES = test system: NCI/ADR-RES
# COLO 205 = test system: COLO 205
# RPMI-8226 = test system: RPMI-8226
# OVCAR-4 = test system: OVCAR-4
# SK-MEL-5 = test system: SK-MEL-5
# HT-29 = test system: HT-29
# U-251 = test system: U-251
# SK-MEL-2 = test system: SK-MEL-2
# NCI-H226 = test system: NCI-H226
# SF-539 = test system: SF-539
# DU-145 = test system: DU-145
# SNB-19 = test system: SNB-19
# SK-MEL-28 = test system: SK-MEL-28
# HCC 2998 = test system: HCC 2998
# Malme-3M = test system: Malme-3M
# BT-549 = test system: BT-549
# K562 = test system: K562
# CAKI-1 = test system: CAKI-1
# LOX IMVI = test system: LOX IMVI
# MDA-MB-435 = test system: MDA-MB-435
# OVCAR-5 = test system: OVCAR-5
# SW-620 = test system: SW-620
# UO-31 = test system: UO-31
# HL-60 = test system: HL-60
# MDA-MB-231 = test system: MDA-MB-231
# MDA-N = test system: MDA-N
# ACHN = test system: ACHN
# MCF7 = test system: MCF7
# HOP-62 = test system: HOP-62
# NCI-H522 = test system: NCI-H522
# TK-10 = test system: TK-10
# HCT-15 = test system: HCT-15
# RXF 393 = test system: RXF 393
# NCI-H23 = test system: NCI-H23
# SF-268 = test system: SF-268
# 786-0 = test system: 786-0
# KM12 = test system: KM12
# HOP-92 = test system: HOP-92
# T47D = test system: T47D
# MOLT-4 = test system: MOLT-4
# SR = test system: SR
# SK-OV-3 = test system: SK-OV-3
# UACC-62 = test system: UACC-62
# OVCAR-3 = test system: OVCAR-3
# SF-295 = test system: SF-295
# SN12C = test system: SN12C
# IGROV-1 = test system: IGROV-1
# Hs-578T = test system: Hs-578T
# NCI-H460 = test system: NCI-H460
# A498 = test system: A498
structure (smiles),measurement,setting,value
CC1(C)CN=C(Nc2ccc(F)c(F)c2)S1,GI50,EKVX,> 100 µM (inactive)
same,GI50,CCRF-CEM,> 100 µM (inactive)
same,GI50,M14,> 100 µM (inactive)
same,GI50,OVCAR-8,> 100 µM (inactive)
same,GI50,UACC-257,> 100 µM (inactive)
same,GI50,HCT-116,> 100 µM (inactive)
same,GI50,A549,> 100 µM (inactive)
same,GI50,PC-3,> 100 µM (inactive)
same,GI50,SNB-75,> 100 µM (inactive)
same,GI50,NCI/ADR-RES,> 100 µM (inactive)
same,GI50,COLO 205,> 100 µM (inactive)
same,GI50,RPMI-8226,> 100 µM (inactive)
same,GI50,OVCAR-4,> 100 µM (inactive)
same,GI50,SK-MEL-5,> 100 µM (inactive)
same,GI50,HT-29,> 100 µM (inactive)
same,GI50,U-251,> 100 µM (inactive)
same,GI50,SK-MEL-2,> 100 µM (inactive)
same,GI50,NCI-H226,> 100 µM (inactive)
same,GI50,SF-539,> 100 µM (inactive)
same,GI50,DU-145,> 100 µM (inactive)
same,GI50,SNB-19,> 100 µM (inactive)
same,GI50,SK-MEL-28,> 100 µM (inactive)
same,GI50,HCC 2998,> 100 µM (inactive)
same,GI50,Malme-3M,> 100 µM (inactive)
same,GI50,BT-549,> 100 µM (inactive)
same,GI50,K562,> 100 µM (inactive)
same,GI50,CAKI-1,> 100 µM (inactive)
same,GI50,LOX IMVI,> 100 µM (inactive)
same,GI50,MDA-MB-435,> 100 µM (inactive)
same,GI50,OVCAR-5,> 100 µM (inactive)
same,GI50,SW-620,> 100 µM (inactive)
same,GI50,UO-31,> 100 µM (inactive)
same,GI50,HL-60,> 100 µM (inactive)
same,GI50,MDA-MB-231,> 100 µM (inactive)
same,GI50,MDA-N,> 100 µM (inactive)
same,GI50,ACHN,> 100 µM (inactive)
same,GI50,MCF7,> 100 µM (inactive)
same,GI50,HOP-62,> 100 µM (inactive)
same,GI50,NCI-H522,> 100 µM (inactive)
same,GI50,TK-10,> 100 µM (inactive)
same,GI50,HCT-15,> 100 µM
same,GI50,RXF 393,> 100 µM (inactive)
same,GI50,NCI-H23,> 100 µM (inactive)
same,GI50,SF-268,> 100 µM (inactive)
same,GI50,786-0,> 100 µM (inactive)
same,GI50,KM12,> 100 µM (inactive)
same,GI50,HOP-92,31.4 µM (inactive)
same,GI50,T47D,> 100 µM (inactive)
same,GI50,MOLT-4,> 100 µM (inactive)
same,GI50,SR,> 100 µM (inactive)
same,GI50,SK-OV-3,> 100 µM (inactive)
same,GI50,UACC-62,> 100 µM (inactive)
same,GI50,OVCAR-3,> 100 µM (inactive)
same,GI50,SF-295,> 100 µM (inactive)
same,GI50,SN12C,> 100 µM (inactive)
same,GI50,IGROV-1,> 100 µM (inactive)
same,GI50,Hs-578T,> 100 µM (inactive)
C[C@@H]1S[C@H](c2c(F)cccc2Cl)n2c1nc1ccccc12,GI50,EKVX,22.1 µM (inactive)
same,GI50,CCRF-CEM,10.6 µM (inactive)
same,GI50,M14,15.2 µM (inactive)
same,GI50,OVCAR-8,19 µM (inactive)
same,GI50,UACC-257,14.1 µM (inactive)
same,GI50,HCT-116,4.49 µM (inactive)
same,GI50,A549,17.1 µM (inactive)
same,GI50,PC-3,6.84 µM (inactive)
same,GI50,SNB-75,16.5 µM (inactive)
same,GI50,NCI/ADR-RES,14.1 µM (inactive)
same,GI50,COLO 205,11.2 µM (inactive)
same,GI50,RPMI-8226,4.44 µM (inactive)
same,GI50,OVCAR-4,18.5 µM (inactive)
same,GI50,HT-29,14.7 µM (inactive)
same,GI50,U-251,10.8 µM (inactive)
same,GI50,SK-MEL-2,15.7 µM (inactive)
same,GI50,NCI-H226,19.9 µM (inactive)
same,GI50,SF-539,15 µM (inactive)
same,GI50,DU-145,27.2 µM (inactive)
same,GI50,SNB-19,26.4 µM (inactive)
same,GI50,SK-MEL-28,13.7 µM (inactive)
same,GI50,HCC 2998,13.6 µM (inactive)
same,GI50,Malme-3M,14.8 µM (inactive)
same,GI50,BT-549,11.6 µM (inactive)
same,GI50,K562,4.4 µM (inactive)
same,GI50,CAKI-1,8.43 µM (inactive)
same,GI50,LOX IMVI,12.5 µM (inactive)
same,GI50,MDA-MB-435,12.6 µM (inactive)
same,GI50,OVCAR-5,33.4 µM (inactive)
same,GI50,SW-620,13.7 µM (inactive)
same,GI50,UO-31,11.9 µM (inactive)
same,GI50,MDA-MB-231,11.5 µM (inactive)
same,GI50,MDA-N,7.62 µM (inactive)
same,GI50,ACHN,27.9 µM (inactive)
same,GI50,MCF7,25.2 µM (inactive)
same,GI50,HOP-62,15.3 µM (inactive)
same,GI50,TK-10,28.5 µM (inactive)
same,GI50,HCT-15,6.76 µM
same,GI50,RXF 393,14.5 µM (inactive)
same,GI50,NCI-H23,14.5 µM (inactive)
same,GI50,SF-268,15.1 µM (inactive)
same,GI50,786-0,14.8 µM (inactive)
same,GI50,KM12,5.53 µM (inactive)
same,GI50,HOP-92,> 10 µM (inactive)
same,GI50,T47D,22.5 µM (inactive)
same,GI50,MOLT-4,5.04 µM (inactive)
same,GI50,SR,7.23 µM (inactive)
same,GI50,SK-OV-3,28.4 µM (inactive)
same,GI50,UACC-62,8.81 µM (inactive)
same,GI50,OVCAR-3,14.9 µM (inactive)
same,GI50,SF-295,18.5 µM (inactive)
same,GI50,SN12C,15.6 µM (inactive)
same,GI50,IGROV-1,17.2 µM (inactive)
same,GI50,Hs-578T,20.6 µM (inactive)
[N-]=[N+]=Nc1c(C=O)c(=O)n(-c2ccccc2)c2ccccc12,GI50,CCRF-CEM,3.09 µM (inactive)
same,GI50,M14,18 µM (inactive)
same,GI50,UACC-257,22.9 µM (inactive)
same,GI50,HCT-116,> 10 µM (inactive)
same,GI50,A549,39.3 µM (inactive)
same,GI50,PC-3,14.4 µM (inactive)
same,GI50,SNB-75,24.8 µM (inactive)
same,GI50,NCI/ADR-RES,23.7 µM (inactive)
same,GI50,COLO 205,13.5 µM (inactive)
same,GI50,RPMI-8226,> 10 µM (inactive)
same,GI50,OVCAR-4,16.7 µM (inactive)
same,GI50,SK-MEL-5,14.1 µM (inactive)
same,GI50,HT-29,23.1 µM (inactive)
same,GI50,U-251,28.6 µM (inactive)
same,GI50,SK-MEL-2,29.2 µM (inactive)
same,GI50,SF-539,73.5 µM (inactive)
same,GI50,DU-145,25.5 µM (inactive)
same,GI50,SNB-19,57 µM (inactive)
same,GI50,SK-MEL-28,16.9 µM (inactive)
same,GI50,HCC 2998,19.1 µM (inactive)
same,GI50,Malme-3M,15.6 µM (inactive)
same,GI50,BT-549,31.8 µM (inactive)
same,GI50,K562,3.89 µM (inactive)
same,GI50,CAKI-1,14 µM (inactive)
same,GI50,LOX IMVI,14.8 µM (inactive)
same,GI50,MDA-MB-435,18.5 µM (inactive)
same,GI50,OVCAR-5,55.8 µM (inactive)
same,GI50,SW-620,2.51 µM (inactive)
same,GI50,UO-31,16.2 µM (inactive)
same,GI50,HL-60,52.4 µM (inactive)
same,GI50,MDA-MB-231,40.3 µM (inactive)
same,GI50,MDA-N,37.8 µM (inactive)
same,GI50,ACHN,19 µM (inactive)
same,GI50,MCF7,27 µM (inactive)
same,GI50,HOP-62,29.3 µM (inactive)
same,GI50,TK-10,19.5 µM (inactive)
same,GI50,HCT-15,18.4 µM
same,GI50,RXF 393,12.1 µM (inactive)
same,GI50,NCI-H23,16.8 µM (inactive)
same,GI50,SF-268,47.8 µM (inactive)
same,GI50,786-0,18.5 µM (inactive)
same,GI50,NCI-H460,29.6 µM (inactive)
same,GI50,KM12,54.5 µM (inactive)
same,GI50,HOP-92,13.4 µM (inactive)
same,GI50,T47D,13.9 µM (inactive)
same,GI50,MOLT-4,2.63 µM (inactive)
same,GI50,A498,0.0778 µM (active)
same,GI50,SR,6.64 µM (inactive)
same,GI50,SK-OV-3,31.5 µM (inactive)
same,GI50,UACC-62,15 µM (inactive)
same,GI50,OVCAR-3,16.1 µM (inactive)
same,GI50,SF-295,75.5 µM (inactive)
same,GI50,SN12C,42.3 µM (inactive)
same,GI50,IGROV-1,16.6 µM (inactive)
same,GI50,Hs-578T,25.1 µM (inactive)
